For series [1], the target named is Somatostatin receptor type 4 (Homo sapiens) (UniProt P31391). Kind of series: Antagonist activity at human sst4 expressed in CHO-K1 cells at 10 uM after 10 mins by HTRF assay relative to control. Type of series: cell-based. Also noted: scale not given: the % may be the effect or the level left. (In general: TR-FRET usually uses a lanthanide donor and a delayed reading to cut background.)

In series [2] the target is Histamine H2 receptor (Homo sapiens) (UniProt P25021). Briefly: Agonist activity at human histamine H2 receptor expressed in CHO-K1 cells at 10 uM after 30 mins by HTRF assay relative to control. Format: cell-based.
Sequence of Histamine H2 receptor (Homo sapiens) (P25021 whole entry): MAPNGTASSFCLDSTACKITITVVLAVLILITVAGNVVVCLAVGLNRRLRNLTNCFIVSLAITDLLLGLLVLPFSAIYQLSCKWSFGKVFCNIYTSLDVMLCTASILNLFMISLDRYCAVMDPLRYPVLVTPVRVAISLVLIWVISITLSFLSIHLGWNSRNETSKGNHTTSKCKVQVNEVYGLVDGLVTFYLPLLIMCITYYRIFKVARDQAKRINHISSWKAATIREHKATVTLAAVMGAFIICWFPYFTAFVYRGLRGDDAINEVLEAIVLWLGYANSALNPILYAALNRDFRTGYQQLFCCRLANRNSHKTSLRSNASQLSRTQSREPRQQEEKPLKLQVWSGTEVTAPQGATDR
A short description of series [3]: Toxicity in female rat assessed as reduction in body weight. The conditions noted are these: in vivo.
Series [4] addresses D(2) dopamine receptor (Homo sapiens) (UniProt P14416). Briefly: Agonist activity at human Dopamine D2L receptor expressed in CHO-K1 cells at 10 uM by Fluorimetric analysis relative to control. Format: cell-based.
Series [5] can be described thus: Maximum oral bioavailability in Han Wistar rat hepatocytes at 1 uM measured after 2 to 90 mins by LC-MS/MS analysis. Format: ADME, Hepatocyte. Particulars: read-out: Fmax.
Series [6] addresses Histamine H3 receptor (Homo sapiens) (UniProt Q9Y5N1). Kind of series: Agonist activity at human histamine H3 receptor expressed in CHO-K1 cells at 10 uM after 10 mins by HTRF assay relative to control. Type of series: cell-based.
A further series deals with Cytochrome P450 2D6 (Homo sapiens, UniProt P10635). Briefly: Inhibition of CYP2D6 in human liver microsomes using dextromethorphan as substrate by LC-MS/MS analysis. Format: ADME.
Sequence of Cytochrome P450 2D6 (P10635 whole entry): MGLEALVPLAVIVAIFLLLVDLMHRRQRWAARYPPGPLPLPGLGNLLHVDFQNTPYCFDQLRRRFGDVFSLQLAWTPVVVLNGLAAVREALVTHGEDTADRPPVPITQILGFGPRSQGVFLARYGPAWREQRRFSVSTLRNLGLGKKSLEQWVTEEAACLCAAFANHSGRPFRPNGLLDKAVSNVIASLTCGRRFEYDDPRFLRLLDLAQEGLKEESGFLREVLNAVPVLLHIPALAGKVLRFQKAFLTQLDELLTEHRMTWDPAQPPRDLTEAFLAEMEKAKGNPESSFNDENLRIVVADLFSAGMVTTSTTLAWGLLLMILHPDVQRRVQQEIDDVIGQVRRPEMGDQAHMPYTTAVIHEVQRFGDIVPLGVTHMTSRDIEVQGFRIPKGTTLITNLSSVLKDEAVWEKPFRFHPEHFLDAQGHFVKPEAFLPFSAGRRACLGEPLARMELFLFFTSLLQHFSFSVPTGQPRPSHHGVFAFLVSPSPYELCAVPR
For series [7], the target named is Cannabinoid receptor 1 (Homo sapiens) (UniProt P21554). Kind of series: Antagonist activity at human CB1 receptor expressed in CHO-K1 cells at 10 uM after 20 mins HTRF assay relative to control. Set-up: scale not given: the % may be the effect or the level left. Type of series: cell-based.
Sequence of Cannabinoid receptor 1 (Homo sapiens) (P21554 whole entry): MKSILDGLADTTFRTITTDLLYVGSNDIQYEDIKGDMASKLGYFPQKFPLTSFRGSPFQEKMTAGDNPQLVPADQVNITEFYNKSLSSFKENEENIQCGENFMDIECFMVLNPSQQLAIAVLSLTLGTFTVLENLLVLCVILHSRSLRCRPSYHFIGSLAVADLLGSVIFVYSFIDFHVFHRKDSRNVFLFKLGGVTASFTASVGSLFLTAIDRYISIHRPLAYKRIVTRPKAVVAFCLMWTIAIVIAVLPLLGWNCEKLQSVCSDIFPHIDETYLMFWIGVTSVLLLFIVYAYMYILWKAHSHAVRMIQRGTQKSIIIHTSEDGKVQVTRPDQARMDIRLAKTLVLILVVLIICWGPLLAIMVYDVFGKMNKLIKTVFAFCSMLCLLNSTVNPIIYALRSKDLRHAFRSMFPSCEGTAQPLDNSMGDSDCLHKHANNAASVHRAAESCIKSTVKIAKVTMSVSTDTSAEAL
Series [8] has as its target Histamine H2 receptor (Homo sapiens) (UniProt P25021). Briefly: Antagonist activity at human histamine H2 receptor expressed in CHO-K1 cells at 10 uM after 30 mins by HTRF assay relative to control. Type of series: cell-based. Also noted: scale not given: the % may be the effect or the level left.
The nature of series [9]: Clearance in Wistar rat at 0.5 mg/kg, iv after 2 to 72 hrs by LC-MS/MS analysis. Type of series: ADME, organism-based. The conditions noted are these: in vivo.
Series [10] addresses Substance-P receptor (Homo sapiens) (UniProt P25103). Kind of series: Agonist activity at human NK1 receptor expressed in U373 MG cells at 10 uM by fluorimetric method relative to control. Type of series: cell-based. Particulars: U-373MG ATCC.
For the next series, the target named is Cytochrome P450 2C9 (Homo sapiens, UniProt P11712). Briefly: Inhibition of CYP2C9 in human liver microsomes using diclofenac as substrate by LC-MS/MS analysis. Format: ADME. A general note: Liver microsomes are vesicles of endoplasmic reticulum, rich in cytochrome P450 enzymes.
Sequence of Cytochrome P450 2C9 (P11712 whole entry): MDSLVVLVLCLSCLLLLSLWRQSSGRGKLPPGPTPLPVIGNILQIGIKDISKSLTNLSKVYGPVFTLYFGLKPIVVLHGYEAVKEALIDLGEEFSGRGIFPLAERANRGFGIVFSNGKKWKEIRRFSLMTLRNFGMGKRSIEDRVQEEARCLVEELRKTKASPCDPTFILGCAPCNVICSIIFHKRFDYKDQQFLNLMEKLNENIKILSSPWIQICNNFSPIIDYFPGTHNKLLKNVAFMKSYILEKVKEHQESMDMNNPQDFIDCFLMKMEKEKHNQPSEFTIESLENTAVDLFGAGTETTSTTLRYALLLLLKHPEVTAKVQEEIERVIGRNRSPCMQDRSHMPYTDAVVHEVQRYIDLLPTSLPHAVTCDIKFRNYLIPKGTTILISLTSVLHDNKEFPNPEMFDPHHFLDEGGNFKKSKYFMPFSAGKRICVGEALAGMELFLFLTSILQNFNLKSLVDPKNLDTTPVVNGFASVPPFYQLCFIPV
Series [11] is described as follows: Tmax in Wistar rat at 2 mg/kg, po after 8 to 72 hrs by LC-MS/MS analysis. Format: ADME, organism-based. Particulars: in vivo.
The target of series [12] is T1, Alpha-2A adrenergic receptor (Homo sapiens) (UniProt P08913).
T1 sequence (whole entry): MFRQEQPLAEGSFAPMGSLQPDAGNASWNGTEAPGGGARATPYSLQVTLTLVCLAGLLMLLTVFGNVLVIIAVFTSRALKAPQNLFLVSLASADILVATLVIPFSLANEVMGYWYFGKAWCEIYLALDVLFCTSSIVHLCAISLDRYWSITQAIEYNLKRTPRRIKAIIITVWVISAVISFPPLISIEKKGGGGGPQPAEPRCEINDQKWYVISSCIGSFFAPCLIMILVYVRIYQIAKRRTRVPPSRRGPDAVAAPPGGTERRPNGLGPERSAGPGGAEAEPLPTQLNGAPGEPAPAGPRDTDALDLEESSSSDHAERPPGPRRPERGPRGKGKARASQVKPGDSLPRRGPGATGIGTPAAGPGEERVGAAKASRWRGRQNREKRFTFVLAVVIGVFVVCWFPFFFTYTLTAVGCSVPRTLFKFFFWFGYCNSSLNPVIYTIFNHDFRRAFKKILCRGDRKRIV
Kind of series: Agonist activity at human alpha2A adrenergic receptor expressed in Chem-1 cells at 10 uM by fluorimetric method relative to control. Type of series: cell-based.

In series [13] the target is T2, Alpha-1A adrenergic receptor (Homo sapiens) (UniProt P35348).
T2 sequence (whole entry): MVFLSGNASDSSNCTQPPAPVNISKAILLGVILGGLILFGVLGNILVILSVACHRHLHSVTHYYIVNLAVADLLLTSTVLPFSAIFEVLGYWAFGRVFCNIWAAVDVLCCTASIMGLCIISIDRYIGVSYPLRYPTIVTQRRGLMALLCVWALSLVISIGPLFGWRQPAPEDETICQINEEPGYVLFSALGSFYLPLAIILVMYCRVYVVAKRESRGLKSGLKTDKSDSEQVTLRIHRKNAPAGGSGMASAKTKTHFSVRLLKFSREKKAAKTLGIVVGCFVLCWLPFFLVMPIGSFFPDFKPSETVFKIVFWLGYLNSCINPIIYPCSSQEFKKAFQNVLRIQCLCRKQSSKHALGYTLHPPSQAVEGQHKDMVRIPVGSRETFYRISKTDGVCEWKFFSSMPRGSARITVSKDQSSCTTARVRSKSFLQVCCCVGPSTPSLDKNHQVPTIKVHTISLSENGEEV
Briefly: Agonist activity at human alpha1A adrenergic receptor expressed in CHO-K1 cells at 10 uM by fluorimetric method relative to control. Format: cell-based.

The target in series [14] is Histamine H3 receptor (Homo sapiens) (UniProt Q9Y5N1). Kind of series: Antagonist activity at human histamine H3 receptor expressed in CHO-K1 cells at 10 uM after 10 mins by HTRF assay relative to control. Format: cell-based. Set-up: scale not given: the % may be the effect or the level left.
Sequence of Histamine H3 receptor (Homo sapiens) (Q9Y5N1 whole entry): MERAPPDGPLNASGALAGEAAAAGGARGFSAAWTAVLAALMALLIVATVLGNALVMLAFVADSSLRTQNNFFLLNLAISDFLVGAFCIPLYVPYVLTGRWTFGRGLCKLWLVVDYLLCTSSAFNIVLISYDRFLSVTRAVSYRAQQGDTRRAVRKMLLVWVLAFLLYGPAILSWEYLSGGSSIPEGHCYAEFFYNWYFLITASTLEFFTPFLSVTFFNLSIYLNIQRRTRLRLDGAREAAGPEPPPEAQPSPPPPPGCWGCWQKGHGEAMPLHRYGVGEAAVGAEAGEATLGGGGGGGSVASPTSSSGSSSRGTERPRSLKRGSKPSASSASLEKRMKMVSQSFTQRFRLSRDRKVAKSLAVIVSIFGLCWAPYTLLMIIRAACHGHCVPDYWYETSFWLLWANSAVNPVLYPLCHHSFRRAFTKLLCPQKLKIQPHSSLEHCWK
The species entered for a further series is Homo sapiens. Kind of series: Selectivity ratio of IC50 for human thyroid stimulating hormone receptor expressed in rat HTC133 cells to human luteinizing hormone receptor. Format: cell-based.
The target of series [15] is T3, Prostaglandin E2 receptor EP3 subtype (Homo sapiens) (UniProt P43115).
T3 sequence (whole entry): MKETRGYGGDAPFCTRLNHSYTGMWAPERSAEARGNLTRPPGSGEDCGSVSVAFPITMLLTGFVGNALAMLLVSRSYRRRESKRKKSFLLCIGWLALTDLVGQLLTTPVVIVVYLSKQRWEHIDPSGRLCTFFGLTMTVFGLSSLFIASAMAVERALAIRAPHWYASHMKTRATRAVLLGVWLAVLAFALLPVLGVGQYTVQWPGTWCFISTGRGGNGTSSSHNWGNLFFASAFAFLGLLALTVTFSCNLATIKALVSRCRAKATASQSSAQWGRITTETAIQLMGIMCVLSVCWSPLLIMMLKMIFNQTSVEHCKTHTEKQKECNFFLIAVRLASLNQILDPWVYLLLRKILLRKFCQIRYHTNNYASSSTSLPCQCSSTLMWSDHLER
Kind of series: Antagonist activity at human EP3 receptor expressed in […] cells at 10 uM by spectrophotometric method relative to control. Also noted: scale not given: the % may be the effect or the level left. Type of series: cell-based.

A short description of series [16]: Half life in Wistar rat at 0.5 mg/kg, iv after 2 to 72 hrs by LC-MS/MS analysis. Particulars: in vivo. Format: ADME, organism-based.
In series [17] the target is Beta-2 adrenergic receptor (Homo sapiens) (UniProt P07550). Kind of series: Agonist activity at human beta2 adrenergic receptor expressed in CHO-K1 cells at 10 uM after 30 mins HTRF assay relative to control. Format: cell-based.
Sequence of Beta-2 adrenergic receptor (Homo sapiens) (P07550 whole entry, looked up): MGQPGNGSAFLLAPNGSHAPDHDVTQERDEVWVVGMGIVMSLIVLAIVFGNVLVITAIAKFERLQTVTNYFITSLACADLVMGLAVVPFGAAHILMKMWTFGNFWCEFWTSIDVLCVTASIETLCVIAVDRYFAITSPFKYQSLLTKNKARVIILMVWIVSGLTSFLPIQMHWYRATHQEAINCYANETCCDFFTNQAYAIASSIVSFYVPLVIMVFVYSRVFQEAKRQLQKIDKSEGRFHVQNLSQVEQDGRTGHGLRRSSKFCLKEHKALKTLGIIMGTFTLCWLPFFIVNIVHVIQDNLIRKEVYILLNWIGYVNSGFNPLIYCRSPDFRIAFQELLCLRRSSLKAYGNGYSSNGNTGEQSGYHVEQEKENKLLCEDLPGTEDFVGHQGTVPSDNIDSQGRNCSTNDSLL
The target in series [18] is D(2) dopamine receptor (Homo sapiens) (UniProt P14416). Kind of series: Antagonist activity at human Dopamine D2L receptor expressed in CHO-K1 cells at 10 uM by Fluorimetric analysis relative to control. Format: cell-based. Also noted: scale not given: the % may be the effect or the level left.
Sequence of D(2) dopamine receptor (Homo sapiens) (P14416 whole entry): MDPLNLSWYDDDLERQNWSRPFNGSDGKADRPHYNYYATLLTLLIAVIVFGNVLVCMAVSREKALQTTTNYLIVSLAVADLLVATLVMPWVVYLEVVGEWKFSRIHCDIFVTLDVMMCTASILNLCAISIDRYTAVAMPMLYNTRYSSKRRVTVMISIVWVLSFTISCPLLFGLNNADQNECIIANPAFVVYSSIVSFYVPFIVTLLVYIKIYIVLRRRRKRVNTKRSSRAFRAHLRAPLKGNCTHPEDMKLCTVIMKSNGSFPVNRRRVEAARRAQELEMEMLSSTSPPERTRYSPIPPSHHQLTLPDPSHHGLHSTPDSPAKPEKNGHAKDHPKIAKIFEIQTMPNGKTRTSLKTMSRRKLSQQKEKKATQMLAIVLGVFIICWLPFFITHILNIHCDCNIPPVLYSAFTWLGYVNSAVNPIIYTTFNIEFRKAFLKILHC
Series [19] has as its target Beta-1 adrenergic receptor (Homo sapiens) (UniProt P08588). Briefly: Antagonist activity at human beta1 adrenergic receptor expressed in HEK293 cells at 10 uM after 30 mins HTRF assay relative to control. Type of series: cell-based. Set-up: scale not given: the % may be the effect or the level left.
Series [20] has as its target Beta-2 adrenergic receptor (Homo sapiens) (UniProt P07550). Briefly: Antagonist activity at human beta2 adrenergic receptor expressed in CHO-K1 cells at 10 uM after 30 mins HTRF assay relative to control. Type of series: cell-based. Set-up: scale not given: the % may be the effect or the level left.

The IC50 is the concentration needed to halve the response being measured. The clearance is the rate of elimination divided by the concentration. Broadly, the Tmax is the time at which the peak concentration occurs. As a reminder, the half-life is the time in which the quantity being followed falls by half.

Sequence of Substance-P receptor (Homo sapiens) (P25103 whole entry): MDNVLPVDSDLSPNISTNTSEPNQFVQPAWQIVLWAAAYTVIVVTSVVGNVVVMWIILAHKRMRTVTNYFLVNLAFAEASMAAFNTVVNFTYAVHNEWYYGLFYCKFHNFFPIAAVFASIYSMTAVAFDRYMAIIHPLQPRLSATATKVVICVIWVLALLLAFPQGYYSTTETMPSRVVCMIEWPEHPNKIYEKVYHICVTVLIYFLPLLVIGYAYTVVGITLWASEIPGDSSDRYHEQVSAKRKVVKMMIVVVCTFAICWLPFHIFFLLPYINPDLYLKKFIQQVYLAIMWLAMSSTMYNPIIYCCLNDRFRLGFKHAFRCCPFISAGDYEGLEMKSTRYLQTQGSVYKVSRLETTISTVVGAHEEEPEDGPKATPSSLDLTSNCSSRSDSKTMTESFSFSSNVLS
Sequence of Beta-1 adrenergic receptor (Homo sapiens) (P08588 whole entry, looked up): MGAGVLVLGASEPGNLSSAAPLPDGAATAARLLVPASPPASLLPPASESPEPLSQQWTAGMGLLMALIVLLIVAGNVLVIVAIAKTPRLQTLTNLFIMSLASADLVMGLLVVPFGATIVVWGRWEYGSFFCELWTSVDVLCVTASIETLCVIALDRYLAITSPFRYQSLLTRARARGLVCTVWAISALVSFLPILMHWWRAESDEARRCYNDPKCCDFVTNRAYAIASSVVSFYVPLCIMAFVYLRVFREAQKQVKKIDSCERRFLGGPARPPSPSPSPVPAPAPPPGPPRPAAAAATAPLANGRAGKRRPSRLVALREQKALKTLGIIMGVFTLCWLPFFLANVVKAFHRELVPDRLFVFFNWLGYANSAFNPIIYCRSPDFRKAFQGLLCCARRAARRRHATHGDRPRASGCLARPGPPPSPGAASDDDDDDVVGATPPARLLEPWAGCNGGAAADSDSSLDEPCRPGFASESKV
Sequence of Somatostatin receptor type 4 (Homo sapiens) (P31391 whole entry): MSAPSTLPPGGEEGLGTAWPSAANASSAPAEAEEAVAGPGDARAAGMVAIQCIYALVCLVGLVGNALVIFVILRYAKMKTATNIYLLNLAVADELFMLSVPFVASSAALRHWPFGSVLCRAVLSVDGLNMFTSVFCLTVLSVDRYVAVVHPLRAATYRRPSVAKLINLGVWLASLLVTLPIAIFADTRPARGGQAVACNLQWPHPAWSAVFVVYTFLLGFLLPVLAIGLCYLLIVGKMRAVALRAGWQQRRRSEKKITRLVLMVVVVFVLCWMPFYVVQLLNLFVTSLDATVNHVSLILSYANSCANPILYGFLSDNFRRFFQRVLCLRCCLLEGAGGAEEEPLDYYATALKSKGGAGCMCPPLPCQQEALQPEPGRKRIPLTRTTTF

Consider `O=C(Nc1cnc(Oc2ccc(F)cc2)nc1)N1CCc2ncccc2[C@@H]1c1ccc(F)cc1` [BAY-899], for which the Activity in series [1] is under 70%; in [2] it was under 70%; in series [3], “Non-Toxic”; in [4], under 70%; in series [6] it was under 70%; in series [7] it was under 70%. Besides, the Activity in series [8], in [10], in [12], in series [13], in [14] and in series [15] was under 70% each time. Also, the Activity in series [17], in [18], in series [19] and in series [20] was under 70% in each case. Moreover, the Fh at 1 µM in [5] was 68%. For the same compound, the values for the IC50 against Cytochrome P450 2D6 and on Cytochrome P450 2C9 were over 20 µM and 9.9 µM, respectively. In [9], this compound gave a clearance of 6.83 mL/min/kg. Further, in series [11], the time of peak concentration (Tmax) amounted to 8 h. The Ratio IC50 in the series filed under Homo sapiens was over 100. Moreover, the half-life in series [16] is 31 h.
Consider `O=C(Nc1ccc(Oc2ccc(F)cc2)cc1)N1CCc2ncccc2[C@@H]1c1ccc(Cl)cc1`, for which the Activity is under 70% in series [1]; under 70% in series [2]; “Non-Toxic” in series [3]; under 70% in series [4]; under 70% in series [6]; under 70% in series [7]. Moreover, the Activity in [8], in series [10], in series [12], in series [13], in series [14] and in series [15] was under 70% throughout. Also, the Activity in series [17], in [18], in [19] and in [20] was under 70% each time. For the same compound, the Fh at 1 µM in series [5] amounted to 74%. Also, the IC50 against Cytochrome P450 2D6 was over 20 µM; against Cytochrome P450 2C9, 4.4 µM. Further, the clearance in series [9] is 1.83 mL/min/kg. In [11], the Tmax is 24 h. In addition, the Ratio IC50 in the series filed under Homo sapiens turned out to be 24. In series [16], this compound showed a half-life of 11 h.
